Assay results: patent US20080125424A1, “Derivatives of urea and related diamines, methods for their manufacture, and uses therefor” (priority 2006, published 2008)

These compounds were tested against T1, human parathyroid cell Ca2+ receptor (hPCaR) (Homo sapiens, UniProt P41180) (assay: [Ca2+]i fluorescence assay in HEK 293 4.0-7 cells expressing hPCaR). Conditions: buffer with 1 mM CaCl2.
T1 construct: expressed in transfected cells
T1 sequence (P41180 20-1078): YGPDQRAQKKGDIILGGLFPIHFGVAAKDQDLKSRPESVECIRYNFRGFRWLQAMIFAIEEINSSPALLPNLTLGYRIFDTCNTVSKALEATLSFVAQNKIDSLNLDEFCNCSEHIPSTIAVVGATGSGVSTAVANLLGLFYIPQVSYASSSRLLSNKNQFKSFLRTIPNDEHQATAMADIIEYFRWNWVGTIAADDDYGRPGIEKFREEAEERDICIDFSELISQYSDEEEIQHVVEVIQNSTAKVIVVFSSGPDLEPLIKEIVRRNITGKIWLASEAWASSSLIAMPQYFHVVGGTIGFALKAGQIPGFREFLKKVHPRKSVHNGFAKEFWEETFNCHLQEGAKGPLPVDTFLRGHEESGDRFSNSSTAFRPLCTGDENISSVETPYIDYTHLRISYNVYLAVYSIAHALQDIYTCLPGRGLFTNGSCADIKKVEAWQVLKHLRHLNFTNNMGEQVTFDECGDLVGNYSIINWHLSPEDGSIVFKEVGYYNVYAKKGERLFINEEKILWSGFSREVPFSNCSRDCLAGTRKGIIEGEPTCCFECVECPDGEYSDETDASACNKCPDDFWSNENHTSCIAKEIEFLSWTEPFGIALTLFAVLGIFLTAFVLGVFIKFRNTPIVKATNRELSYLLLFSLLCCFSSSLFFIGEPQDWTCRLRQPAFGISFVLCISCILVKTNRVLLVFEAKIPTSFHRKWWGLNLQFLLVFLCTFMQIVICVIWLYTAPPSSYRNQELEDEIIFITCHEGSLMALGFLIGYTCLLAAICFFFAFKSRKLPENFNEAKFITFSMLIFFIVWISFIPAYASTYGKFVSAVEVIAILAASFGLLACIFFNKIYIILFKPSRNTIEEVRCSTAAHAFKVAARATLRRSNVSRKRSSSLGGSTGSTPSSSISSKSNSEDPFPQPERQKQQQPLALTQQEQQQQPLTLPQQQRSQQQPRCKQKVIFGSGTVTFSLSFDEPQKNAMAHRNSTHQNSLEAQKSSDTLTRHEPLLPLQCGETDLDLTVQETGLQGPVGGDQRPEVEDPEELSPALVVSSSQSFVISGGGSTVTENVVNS
Assay type: cell-based
Procedure: The activities of the compounds of the present invention on calcium receptors were measured. In one embodiment, the measurement was performed in accordance with the method described in Example 4 of Nemeth et al., PCT/US95/13704 (International Publication No. WO96/12697) herein incorporated by reference.
A 4.0-kb NotI-HindIII fragment of the human parathyroid cell Ca^2+ receptor (hPCaR) cDNA was subcloned into the mammalian expression vector pCEP4 (Invitrogen) containing the hygromycin-resistant gene as a selectable marker. This plasmid was transfected into HEK 293 cells by calcium phosphate precipitation. Transfected cells were grown in Dulbecco's modified Eagle's medium containing 10% fetal bovine serum and hygromycin (200 μg/mL). Hygromycin-resistant colonies were subcloned and assayed for hPCaR mRNA by solution hybridization using a ^32P-labeled RNA probe complementary to the (4.0 kb) hPCaR sequence (Garrett, et al., J. Biol. Chem. 270, 12919-12925 (1995)). Clone 7 was used to assess the effects of compounds on [Ca^2+]i. This stably transfected cell line was termed HEK 293 4.0-7. For measurements of [Ca^2+]i, the cells were recovered from tissue culture flasks by brief treatment with Versene (Invitrogen; Containing 0.2 g/L EDTA.4Na in phosphate-buffered saline) and then seeded in collagen coated 384-well plates (BD Biosciences) at 20K cells per well in the growth media (same as above). Cells were grown in 37c TC incubator overnight. Then, the media was discarded and cells were loaded with 1× dye from Ca^2+ Assay Kit I (BD Biosciences) in parathyroid cell buffer (126 mM NaCl, 4 mM KCl, 1 mM MgSO4, 0.7 mM K2HPO4/KH2PO4, 20 mM HEPES.NaOH (pH 7.45)) containing 0.5% BSA and 1 mM CaCl2. Cells were loaded at room temperature for 90 minutes. Each test compound was added to the cells and the fluorescence was recorded by using excitation and emission wavelengths of 485 and 530 nm, respectively.

Row | EC50 | SMILES
1 | 100 to 1000 nM | O=C(CCCN(CCC(c1ccccc1)c1ccccc1)C(=O)Nc1nc2ccccc2s1)N1CCOCC1 [Example 94, 3-(benzo[d]thiazol-2-yl)-1-(3,3-diphenylpropyl)-1-(4-morpholino-4-oxobutyl)urea]
2 | 100 to 1000 nM | CC(C)(C)OC(=O)N1CCN(C(=O)CCCN(CCC(c2ccccc2)c2ccccc2)C(=O)Nc2nc(-c3ccccc3)cs2)CC1 [Example 96, tert-butyl 4-(4-(1-(3,3-diphenylpropyl)-3-(4-phenylthiazol-2-yl)ureido)butanoyl)piperazine-1-carboxylate]
3 | 100 to 1000 nM | O=C(CCCN(CCC(c1ccccc1)c1ccccc1)C(=O)Nc1nc2ccccc2s1)NC1CCCCC1 [Example 97, 3-(benzo[d]thiazol-2-yl)-1-(4-(cyclohexylamino)-4-oxobutyl)-1-(3,3-diphenylpropyl)urea]
4 | 100 to 1000 nM | C[C@@H]1CN(C(=O)CCCN(CCC(c2ccccc2)c2ccccc2)C(=O)Nc2nc(-c3ccccc3)cs2)CCN1 [Example 99, (R)-1-(3,3-diphenylpropyl)-1-(4-(3-methylpiperazin-1-yl)-4-oxobutyl)-3-(4-phenylthiazol-2-yl)urea]
5 | 100 to 1000 nM | C[C@H]1CNCCN1C(=O)CCCN(CCC(c1ccccc1)c1ccccc1)C(=O)Nc1nc(-c2ccccc2)cs1 [Example 100, (S)-1-(3,3-diphenylpropyl)-1-(4-(2-methylpiperazin-1-yl)-4-oxobutyl)-3-(4-phenylthiazol-2-yl)urea]
6 | 100 to 1000 nM | CC(C)(C)OC(=O)CCCN(CCC(c1ccccc1)c1ccccc1)C(=O)Nc1nc2ccccc2s1 [Example 101, tert-butyl 4-(3-(benzo[d]thiazol-2-yl)-1-(3,3-diphenylpropyl)ureido)butanoate]
7 | 100 to 1000 nM | O=C(CCN(CCC(c1ccccc1)c1ccccc1)C(=O)Nc1nc(-c2ccccc2)cs1)N[C@@H]1CCCNC1 [Example 102, (R)-1-(3,3-diphenylpropyl)-1-(3-oxo-3-(piperidin-3-ylamino)propyl)-3-(4-phenylthiazol-2-yl)urea]
8 | 100 to 1000 nM | O=C(O)CCCN(CCC(c1ccccc1)c1ccccc1)C(=O)Nc1nc2ccccc2s1 [Example 104, 4-(3-(benzo[d]thiazol-2-yl)-1-(3,3-diphenylpropyl)ureido)butanoic acid]
9 | 100 to 1000 nM | CN(C)C(=O)CCN(CCC(c1ccccc1)c1ccccc1)C(=O)Nc1nc2ccccc2s1 [Example 107, 3-(benzo[d]thiazol-2-yl)-1-(3-(dimethylamino)-3-oxopropyl)-1-(3,3-diphenylpropyl)urea]
10 | 100 to 1000 nM | CS(=O)(=O)Nc1ccc(-c2csc(NC(=O)N(CCC(=O)O)CCC(c3ccccc3)c3ccccc3)n2)cc1 [Example 113, 3-(1-(3,3-diphenylpropyl)-3-(4-(4-(methylsulfonamido)phenyl)thiazol-2-yl)ureido)propanoic acid]
11 | 100 to 1000 nM | O=C(O)CCN(CCC(c1ccccc1)c1ccccc1)C(=O)Nc1nc2ccccc2s1 [Example 114, 3-(3-(benzo[d]thiazol-2-yl)-1-(3,3-diphenylpropyl)ureido)propanoic acid]
12 | 100 to 1000 nM | CCOC(=O)CCCN(CCC(c1ccccc1)c1ccccc1)C(=O)Nc1nc2ccccc2s1 [Example 116, ethyl 4-(3-(benzo[d]thiazol-2-yl)-1-(3,3-diphenylpropyl)ureido)butanoate]

Continued, compound first:

Row | SMILES | EC50
13 | O=C(CCN(CCC(c1ccccc1)c1ccccc1)C(=O)Nc1nc(-c2ccccc2)cs1)N[C@H]1CCCNC1 [Example 93, (S)-1-(3,3-diphenylpropyl)-1-(3-oxo-3-(piperidin-3-ylamino)propyl)-3-(4-phenylthiazol-2-yl)urea] | 100 to 1000 nM
14 | CC(C)(C)OC(=O)N1CCN(C(=O)CCCN(CCC(c2ccccc2)c2ccccc2)C(=O)Nc2nc3ccccc3s2)CC1 [Example 95, tert-butyl 4-(4-(3-(benzo[d]thiazol-2-yl)-1-(3,3-diphenylpropyl)ureido)butanoyl)piperazine-1-carboxylate] | 100 to 1000 nM
15 | CS(=O)(=O)Nc1ccc(-c2nc(NC(=O)N(CCC(=O)O)CCC(c3ccccc3)c3ccccc3)sc2Cl)cc1 [Example 98, 3-(3-(5-chloro-4-(4-(methylsulfonamido)phenyl)thiazol-2-yl)-1-(3,3-diphenylpropyl)ureido)propanoic acid] | 100 to 1000 nM
16 | O=C(CCN(CCC(c1ccccc1)c1ccccc1)C(=O)Nc1nc2ccccc2s1)N1CCOCC1 [Example 103, 3-(benzo[d]thiazol-2-yl)-1-(3,3-diphenylpropyl)-1-(3-morpholino-3-oxopropyl)urea] | 100 to 1000 nM
17 | O=C(CCCN(CCC(c1ccccc1)c1ccccc1)C(=O)Nc1nc2ccccc2s1)N1CCCCC1 [Example 105, 3-(benzo[d]thiazol-2-yl)-1-(3,3-diphenylpropyl)-1-(4-oxo-4-(piperidin-1-yl)butyl)urea] | 100 to 1000 nM
18 | O=C(CCN(CCC(c1ccccc1)c1ccccc1)C(=O)Nc1nc2ccccc2s1)N1CCNCC1 [Example 106, 3-(benzo[d]thiazol-2-yl)-1-(3,3-diphenylpropyl)-1-(3-oxo-3-(piperazin-1-yl)propyl)urea] | 100 to 1000 nM
19 | CN1CCN(C(=O)CCCN(CCC(c2ccccc2)c2ccccc2)C(=O)Nc2nc3ccccc3s2)CC1 [Example 108, 3-(benzo[d]thiazol-2-yl)-1-(3,3-diphenylpropyl)-1-(4-(4-methylpiperazin-1-yl)-4-oxobutyl)urea] | 100 to 1000 nM
20 | NC(=O)CCN(CCC(c1ccccc1)c1ccccc1)C(=O)Nc1nc2ccccc2s1 [Example 109, 1-(3-amino-3-oxopropyl)-3-(benzo[d]thiazol-2-yl)-1-(3,3-diphenylpropyl)urea] | 100 to 1000 nM
21 | NC(=O)CCN(CCC(c1ccccc1)c1ccccc1)C(=O)Nc1nc(-c2ccccc2)c(Cl)s1 [Example 110, 1-(3-amino-3-oxopropyl)-3-(5-chloro-4-phenylthiazol-2-yl)-1-(3,3-diphenylpropyl)urea] | 100 to 1000 nM
22 | O=C(O)CCCN(CCC(c1ccccc1)c1ccccc1)C(=O)Nc1nc(-c2ccccc2)cs1 [Example 111, 4-(1-(3,3-diphenylpropyl)-3-(4-phenylthiazol-2-yl)ureido)butanoic acid] | 100 to 1000 nM
23 | O=C(CCN(CCC(c1ccccc1)c1ccccc1)C(=O)Nc1nc2ccccc2s1)NC1CCCCC1 [Example 112, 3-(benzo[d]thiazol-2-yl)-1-(3-(cyclohexylamino)-3-oxopropyl)-1-(3,3-diphenylpropyl)urea] | 100 to 1000 nM
24 | C[C@H]1CN(C(=O)CCN(CCC(c2ccccc2)c2ccccc2)C(=O)Nc2nc3ccccc3s2)CCN1 [Example 115, (S)-3-(benzo[d]thiazol-2-yl)-1-(3,3-diphenylpropyl)-1-(3-(3-methylpiperazin-1-yl)-3-oxopropyl)urea] | 100 to 1000 nM
25 | O=C(CCN(CCC(c1ccccc1)c1ccccc1)C(=O)Nc1nc2ccccc2s1)NCc1ccccc1 [Example 117, 3-(benzo[d]thiazol-2-yl)-1-(3-(benzylamino)-3-oxopropyl)-1-(3,3-diphenylpropyl)urea] | 100 to 1000 nM
26 | CC(C)N1CCN(C(=O)CCCN(CCC(c2ccccc2)c2ccccc2)C(=O)Nc2nc3ccccc3s2)CC1 [Example 118, 3-(benzo[d]thiazol-2-yl)-1-(3,3-diphenylpropyl)-1-(4-(4-isopropylpiperazin-1-yl)-4-oxobutyl)urea] | 100 to 1000 nM
